# Experimental data published in ChEMBL document CHEMBL6087474, “Discovery of an Efficacious RET PROTAC Degrader with Enhanced Antiproliferative Activity against Resistant Cancer Cells Harboring RET Solvent-Front Mutations” (J Med Chem, 2025).
# The source made the active and inactive calls. The calls are words filed in the database; no cut-off is given here.
# How the values were obtained:
# [1] = Effect on RET protein level in mouse BaF3 cells stably expressing wildtype KIF5B-RET assessed as fold change at 100 nM measured after 6 hrs by Western blot analysis (reference value: 1); assay type: functional
# [2] = Induction of apoptosis in mouse BaF3 cells stably expressing KIF5B-RET-G810C mutant assessed as late apoptotic cells at 300 nM measured after 48 hrs by Annexin V-FITC/7-AAD staining based flow cytometric analysis (reference value: 1.96 %); assay type: functional
# [3] = Effect on Shc protein level in mouse BaF3 cells stably expressing KIF5B-RET-G810C mutant assessed as fold change at 300 nM measured after 6 hrs by Western blot analysis (reference value: 1); assay type: functional
# BaF3 [4] = assay: Antitumor activity against mouse BaF3 cells stably expressing KIF5B-RET-G810C mutant implanted in male BALB/c mouse model assessed as tumor growth inhibition at 10 mg/kg, ip administered daily for 14 days relative to control; assay type: functional; details: BaF3, 336 h, time 14 day, read-out: TGI
# [5] = Induction of apoptosis in mouse BaF3 cells stably expressing KIF5B-RET-G810C mutant assessed as early apoptotic cells at 300 nM measured after 48 hrs by Annexin V-FITC/7-AAD staining based flow cytometric analysis (reference value: 8.57 %); assay type: functional
# [6] = Induction of apoptosis in mouse BaF3 cells stably expressing wildtype KIF5B-RET fusion protein assessed as early apoptotic cells at 300 nM measured after 48 hrs by Annexin V-FITC/7-AAD staining based flow cytometric analysis (reference value: 9.92 %); assay type: functional
# [7] = Effect on Shc protein level in mouse BaF3 cells stably expressing KIF5B-RET-G810R mutant assessed as fold change at 100 nM measured after 6 hrs by Western blot analysis (reference value: 1); assay type: functional
# BaF3 [8] = assay: Antiproliferative activity against mouse BaF3 cells stably expressing KIF5B-RET-V804L mutant incubated for 72 hrs by CCK-8 assay; assay type: functional, cell-based; details: BaF3, 72 h
# [9] = Effect on RET protein level in mouse BaF3 cells stably expressing KIF5B-RET-G810R mutant assessed as fold change at 100 nM measured after 6 hrs by Western blot analysis (reference value: 1); assay type: functional
# BaF3 [10] = assay: Inhibition of Shc (unknown origin) phosphorylation in mouse BaF3 cells stably expression KIF5B-RET G810R mutant at 333.3 to 3000 nM measured after 6 hrs by Western blot analysis; assay type: cell-based; details: Homo sapiens, dose 333.3-3000 nM
# [11] = Effect on RET protein level in mouse BaF3 cells stably expressing wildtype KIF5B-RET assessed as fold change at 33.3 nM measured after 6 hrs by Western blot analysis (reference value: 1); assay type: functional
# [12] = Induction of apoptosis in mouse BaF3 cells stably expressing KIF5B-RET-G810C mutant assessed as viable cells at 100 nM measured after 48 hrs by Annexin V-FITC/7-AAD staining based flow cytometric analysis (reference value: 86.58 %); assay type: functional; details: read-out: Activity
# [13] = Effect on Shc protein level in mouse BaF3 cells stably expressing KIF5B-RET-V804M mutant assessed as fold change at 100 nM measured after 6 hrs by Western blot analysis (reference value: 1); assay type: functional
# [14] = Induction of apoptosis in mouse BaF3 cells stably expressing wildtype KIF5B-RET fusion protein assessed as early apoptotic cells at 11.1 nM measured after 48 hrs by Annexin V-FITC/7-AAD staining based flow cytometric analysis (reference value: 9.92 %); assay type: functional
# [15] = Effect on Shc protein level in mouse BaF3 cells stably expressing KIF5B-RET-G810R mutant assessed as fold change at 33.3 nM measured after 6 hrs by Western blot analysis (reference value: 1); assay type: functional
# [16] = Induction of apoptosis in mouse BaF3 cells stably expressing wildtype KIF5B-RET fusion protein assessed as necrotic cells at 100 nM measured after 48 hrs by Annexin V-FITC/7-AAD staining based flow cytometric analysis (reference value: 2.40 %); assay type: functional
# [17] = Effect on Shc protein level in mouse BaF3 cells stably expressing KIF5B-RET-V804M mutant assessed as fold change at 33.3 nM measured after 6 hrs by Western blot analysis (reference value: 1); assay type: functional
# [18] = Effect on RET protein level in mouse BaF3 cells stably expressing KIF5B-RET-V804M mutant assessed as fold change at 100 nM measured after 6 hrs by Western blot analysis (reference value: 1); assay type: functional
# [19] = Effect on RET protein level in mouse BaF3 cells stably expressing KIF5B-RET-G810C mutant assessed as fold change at 11.1 nM measured after 6 hrs by Western blot analysis (reference value: 1); assay type: functional
# BaF3 [20] = assay: Antiproliferative activity against mouse BaF3 cells stably expressing KIF5B-RET-V804M mutant incubated for 72 hrs by CCK-8 assay; assay type: functional, cell-based; details: BaF3, 72 h
# [21] = Induction of apoptosis in mouse BaF3 cells stably expressing wildtype KIF5B-RET fusion protein assessed as viable cells at 100 nM measured after 48 hrs by Annexin V-FITC/7-AAD staining based flow cytometric analysis (reference value: 86.65 %); assay type: functional; details: read-out: Activity
# [22] = AUC in male ICR mouse at 10 mg/kg, ip measured after 24 hrs by LC-MS/MS analysis; assay type: ADME, organism-based; details: in vivo
# [23] = PROTAC activity at CRBN/KIF5B-RET (unknown origin) expressed in mouse BaF3 cells assessed as induction of RET degradation measured after 6 hrs by Western blot analysis; details: Homo sapiens, BaF3, 6 h
# BaF3 [24] = assay: PROTAC activity at CRBN/IKZF1 in mouse BaF3 cells overexpressing KIF5B-RET assessed as induction of […] at 10 to 1000 nM incubated for 6 hrs by Western blot analysis; assay type: cell-based; details: dose 10-1000 nM
# BaF3 [25] = assay: Antiproliferative activity against mouse BaF3 cells stably expressing KIF5B-RET-G810C mutant incubated for 72 hrs by CCK-8 assay; assay type: functional, cell-based; details: BaF3, 72 h
# [26] = PROTAC activity at CRBN/KIF5B-RET-G810R mutant (unknown origin) expressed in mouse BaF3 cells assessed as induction of RET degradation measured after 6 hrs by Western blot analysis; assay type: cell-based; details: BaF3, 6 h
# [27] = Induction of apoptosis in mouse BaF3 cells stably expressing KIF5B-RET-G810C mutant assessed as necrotic cells at 33.3 nM measured after 48 hrs by Annexin V-FITC/7-AAD staining based flow cytometric analysis (reference value: 2.89 %); assay type: functional
# [28] = Effect on Shc protein level in mouse BaF3 cells stably expressing KIF5B-RET-G810C mutant assessed as fold change at 11.1 nM measured after 6 hrs by Western blot analysis (reference value: 1); assay type: functional
# [29] = Induction of apoptosis in mouse BaF3 cells stably expressing KIF5B-RET-G810C mutant assessed as necrotic cells at 300 nM measured after 48 hrs by Annexin V-FITC/7-AAD staining based flow cytometric analysis (reference value: 2.89 %); assay type: functional
# [30] = Induction of apoptosis in mouse BaF3 cells stably expressing wildtype KIF5B-RET fusion protein assessed as necrotic cells at 11.1 nM measured after 48 hrs by Annexin V-FITC/7-AAD staining based flow cytometric analysis (reference value: 2.40 %); assay type: functional
compound,measurement,setting,value
COc1ccc(CN2C3CC2CN(c2ccc(-c4cc(-c5cnn(C6CCN(CCCCCC#Cc7cccc8c7CN(C7CCC(=O)NC7=O)C8=O)CC6)c5)cn5ncc(C#N)c45)cn2)C3)cn1 (stereo not given),fold change (FC),[1],0.3
same,Activity,[2],2.91%
same,fold change (FC),[3],1
same,inhibition in vivo at 10 mg/kg,BaF3 [4],31.6%
same,Activity,[5],31.81%
same,Activity,[6],48.33%
same,fold change (FC),[7],0.9
same,IC50,BaF3 [8],50 nM
same,fold change (FC),[9],0.9
same,inhibition,BaF3 [10],Active
same,fold change (FC),[11],0.3
same,viability at 0.1 µM,[12],75.4%
same,fold change (FC),[13],0.9
same,Activity,[14],11.31%
same,fold change (FC),[15],0.9
same,Activity,[16],0.52%
same,fold change (FC),[17],1
same,fold change (FC),[18],0.1
same,fold change (FC),[19],0.7
same,IC50,BaF3 [20],40 nM
same,viability at 0.1 µM,[21],64.9%
same,AUC at 24 h,[22],680 ng·h/mL
same,DC50,[23],4.7 nM
same,Activity,BaF3 [24],inactive
same,IC50,BaF3 [25],50 nM
same,DC50,[26],> 300 nM
same,Activity,[27],2.77%
same,fold change (FC),[28],1
same,Activity,[29],2.15%
same,Activity,[30],3%
